Patent US9416129B2, “Tricyclic substituted thiadiazine dioxide compounds as BACE inhibitors, compositions and their use” (Merck Sharp & Dohme Corp., priority 2012, dated 2016)
pKi: −log10 of the molar value.

What was measured:
[1] = target: soluble human BACE1 catalytic domain (Homo sapiens (Human), UniProt P56817); test: BACE1 HTRF FRET assay; type: biochemical; settings: Ki calculated from IC50 using the Cheng-Prusoff equation
Source text: Na^+-Acetate pH 5.0; 1% Brij-35; Glycerol; Dimethyl Sulfoxide (DMSO); Recombinant human soluble BACE1 catalytic domain (>95% pure); APP Swedish mutant peptide substrate (QSY7-APP^swe-Eu): QSY7-[…]-Europium-amide.
A homogeneous time-resolved FRET assay can be used to determine IC50 values for inhibitors of the soluble human BACE1 catalytic domain. This assay monitors the increase of 620 nm fluorescence that resulted from BACE1 cleavage of an APPswedish APP^swe mutant peptide FRET substrate (QSY7-[…]-Europium-amide). This substrate contains an N-terminal QSY7 moiety that serves as a quencher of the C-terminal Europium fluorophore (620 nm Em). In the absence of enzyme activity, 620 nm fluorescence is low in the assay and increased linearly over 3 hours in the presence of uninhibited BACE1 enzyme Inhibition of BACE1 cleavage of the QSY7-APP^swe-Eu substrate by inhibitors is manifested as a suppression of 620 nm fluorescence.
Varying concentrations of inhibitors at 3× the final desired concentration in a volume of 10 ul are preincubated with purified human BACE1 catalytic domain (3 nM in 10 μl) for 30 minutes at 30° C. in reaction buffer containing 20 mM Na-Acetate pH 5.0, 10% glycerol, 0.1% Brij-35 and 7.5% DSMO. Reactions are initiated by addition of 10 μl of 600 nM QSY7-APP^swe-Eu substrate (200 nM final) to give a final reaction volume of […] in a 384 well Nunc HTRF plate. The reactions are incubated at 30° C. for 1.5 hours. The 620 nm fluorescence is then read on a Rubystar HTRF plate reader (BMG Labtechnologies) using a 50 millisecond delay followed by a 400 millisecond acquisition time window. Inhibitor IC50 values are derived from non-linear regression analysis of concentration response curves.

human autoBACE-2 = human autoBACE-2 (Homo sapiens (Human), UniProt Q9Y5Z0); test: BACE-2 assay (BACE-HTRF, time-resolved endpoint proteolysis); type: biochemical; settings: Ki calculated from IC50 using the Cheng-Prusoff equation; read-out: BACE2 Ki
Description: Inhibitor IC50s at purified human autoBACE-2 are determined in a time-resolved endpoint proteolysis assay that measures hydrolysis of the QSY7-[…]-Eu-amide FRET peptide substrate (BACE-HTRF assay). […] DMSO is present at 5% final concentration in the assay. Following laser excitation of sample wells at 320 nm, the fluorescence signal at 620 nm is collected for 400 ms following a 50 μs delay on a RUBYstar HTRF plate reader (BMG Labtechnologies). Raw RFU data is normalized to maximum (1.0 nM BACE/DMSO) and minimum (no enzyme/DMSO) RFU values. […] The Ki values are calculated from the IC50 using the Cheng-Prusoff equation.

Sequence of soluble human BACE1 catalytic domain (P56817 75-416): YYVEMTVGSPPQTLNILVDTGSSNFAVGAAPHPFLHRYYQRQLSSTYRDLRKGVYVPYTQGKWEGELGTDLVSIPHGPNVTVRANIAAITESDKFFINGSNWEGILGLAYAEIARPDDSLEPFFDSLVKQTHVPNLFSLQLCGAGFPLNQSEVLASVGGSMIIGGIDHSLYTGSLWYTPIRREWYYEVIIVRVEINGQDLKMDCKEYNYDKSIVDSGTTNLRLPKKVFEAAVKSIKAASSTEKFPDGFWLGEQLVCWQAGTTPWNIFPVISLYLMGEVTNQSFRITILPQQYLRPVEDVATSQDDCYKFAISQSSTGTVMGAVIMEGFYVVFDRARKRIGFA
Sequence of human autoBACE-2 (Q9Y5Z0 63-473 limits assumed): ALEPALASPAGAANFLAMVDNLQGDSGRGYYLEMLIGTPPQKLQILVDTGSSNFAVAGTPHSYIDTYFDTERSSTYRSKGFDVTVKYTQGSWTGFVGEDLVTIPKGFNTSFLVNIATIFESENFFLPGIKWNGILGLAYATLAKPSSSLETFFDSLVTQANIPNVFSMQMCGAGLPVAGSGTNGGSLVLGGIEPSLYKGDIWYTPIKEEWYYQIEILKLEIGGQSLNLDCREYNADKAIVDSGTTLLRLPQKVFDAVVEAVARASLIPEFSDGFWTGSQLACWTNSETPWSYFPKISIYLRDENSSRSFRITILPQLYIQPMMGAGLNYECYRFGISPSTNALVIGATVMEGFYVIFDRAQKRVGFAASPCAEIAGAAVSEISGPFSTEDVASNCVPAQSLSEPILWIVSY

| SMILES | pKi [1] | pKi (human autoBACE-2) |
| --- | --- | --- |
| CN1C(=N)N[C@](C)(c2sc(-c3cncc(-c4ncco4)c3)cc2F)CS1(=O)=O [Example 10] | 7.80 | 9.00 |
| CN1C(=N)N[C@](C)(c2sc3c(-c4ccc(-n5ccnn5)cc4)cccc3c2F)CS1(=O)=O [Example 83] | 7.72 | 6.83 |
| CN1C(=N)N[C@](C)(c2cc(-c3cncc(-c4cnco4)c3)cs2)CS1(=O)=O [Example 22] | 7.07 | 7.01 |
| CN1C(=N)N[C@](C)(c2sc3c(-c4ccc(N5CCS(=O)(=O)CC5)cc4)cccc3c2F)CS1(=O)=O [Example 85] | 5.19 | 5.33 |
| CN1C(=N)N[C@](C)(c2sc3c(-c4cnc(-n5cccn5)nc4)nccc3c2Cl)CS1(=O)=O [Example 97] | 7.21 | 7.19 |
| CN1C(=N)N[C@](C)(c2sc(-c3cccc(-n4ccnc4)n3)cc2Cl)CS1(=O)=O [Example 68] | 6.37 | 7.11 |
| CN1C(=N)N[C@](C)(c2sc(-c3cncc(-c4cnco4)c3)cc2F)CS1(=O)=O [Example 21] | 7.74 | 7.80 |
| CN1C(=N)N[C@](C)(c2sc3c(-c4ccc(-c5cncs5)cc4F)nccc3c2Cl)CS1(=O)=O [Example 113] | 6.98 | 6.60 |
| CN1C(=N)N[C@](C)(c2ncc(-c3cccc(-c4nnco4)c3)s2)CS1(=O)=O [Example 27] | 7.86 | 6.82 |
| CN1C(=N)N[C@](C)(c2ncc(-c3cccc(-c4ncco4)c3)s2)CS1(=O)=O [Example 26] | 7.36 | 8.24 |
| CN1CCN(c2ccc(-c3cccc4c(F)c([C@]5(C)CS(=O)(=O)N(C)C(=N)N5)sc34)cn2)CC1 [Example 93] | 5.42 | 5.58 |
| CN1C(=N)N[C@](C)(c2sc(-c3cc(F)cc(-c4nnco4)c3)cc2F)CS1(=O)=O [Example 29] | 8.92 | 8.89 |
| Cc1cn(-c2cc(-c3cc(F)c([C@]4(C)CS(=O)(=O)N(C)C(=N)N4)s3)ccn2)cn1 [Example 72] | 7.17 | 7.59 |
| CN1C(=N)N[C@](C)(c2sc(-c3cncc(-c4nnc(C5CC5)o4)c3)cc2Cl)CS1(=O)=O [Example 57] | 6.25 | 7.36 |
| CN1C(=N)N[C@](C)(c2sc(-c3ccc(F)c(-c4nnco4)c3)cc2F)CS1(=O)=O [Example 34] | 8.17 | 7.96 |
| CN1C(=N)N[C@](C)(c2sc(-c3cccc(-c4noc(C5CC5)n4)c3)cc2F)CS1(=O)=O [Example 45] | 6.49 | 8.52 |
| CN1C(=N)N[C@](C)(c2sc(-c3ccc(N4CCOCC4)nc3)cc2Cl)CS1(=O)=O [Example 66] | 5.23 | 5.74 |
| CN1C(=N)N[C@](C)(c2sc3c(-c4ccc(-n5cccn5)nc4)cccc3c2F)CS1(=O)=O [Example 87] | 8.00 | 7.51 |
| CN1C(=N)N[C@](C)(c2sc(-c3ccnc(-c4ccccc4)c3)cc2F)CS1(=O)=O [Example 54] | 6.88 | 7.92 |
| Cc1nnc(-c2cccc(-c3cc(Cl)c([C@]4(C)CS(=O)(=O)N(C)C(=N)N4)s3)c2)o1 [Example 15] |  | 8.42 |
| CN1C(=N)N[C@](C)(c2sc3c(-c4ccc(-c5nccn5C)cc4)nccc3c2Cl)CS1(=O)=O [Example 105] | 5.79 | 7.07 |
| CN1C(=N)N[C@](C)(c2sc(-c3cccc(-c4nnco4)c3)cc2F)CS1(=O)=O [Example 2] | 8.77 | 7.86 |
| CN1C(=N)N[C@](C)(c2sc3c(-c4ccc(C5CC5)nc4)nccc3c2Cl)CS1(=O)=O [Example 79] | 6.55 | 7.66 |
| Cc1occc1-c1ccc(-c2nccc3c(Cl)c([C@]4(C)CS(=O)(=O)N(C)C(=N)N4)sc23)c(F)c1 [Example 109] | 6.28 | 7.06 |
| CN1C(=N)N[C@](C)(c2sc3c(-c4ccc(-c5ccoc5)cc4F)nccc3c2Cl)CS1(=O)=O [Example 107] | 7.71 | 6.57 |
| CN1C(=N)N[C@](C)(c2sc(-c3cc(-c4nnco4)ccc3F)cc2F)CS1(=O)=O [Example 32] | 8.96 | 8.41 |
| CN1C(=N)N[C@](C)(c2sc3c(-c4ccc(-c5ccc(F)cc5F)nc4)cccc3c2F)CS1(=O)=O [Example 82] | 7.03 | 7.21 |

| SMILES | pKi [1] | pKi (human autoBACE-2) |
| --- | --- | --- |
| CN1C(=N)N[C@](C)(c2sc(-c3ccc(-c4ncco4)cc3)cc2Cl)CS1(=O)=O [Example 69] | 5.37 | 6.47 |
| CN1C(=N)N[C@](C)(c2cc(-c3cc(F)cc(-c4nnco4)c3)ccc2F)CS1(=O)=O [Example 30] | 6.06 | 6.63 |
| Cc1nnc(-c2cccc(-c3cc(Cl)c([C@]4(C)CS(=O)(=O)N(C)C(=N)N4)s3)c2)o1 [Example 53] | 6.89 |  |
| CN1C(=N)N[C@](C)(c2sc(-c3cccc(-c4nnco4)c3F)cc2Cl)CS1(=O)=O [Example 35] | 7.22 | 7.52 |
| CN1C(=N)N[C@](C)(c2sc(-c3cccc(-c4ncno4)c3)cc2F)CS1(=O)=O [Example 48] | 9.06 | 9.20 |
| CN1CCN(c2ccc(-c3cccc4c(F)c([C@]5(C)CS(=O)(=O)N(C)C(=N)N5)sc34)cc2)CC1 [Example 95] | 5.01 | 5.69 |
| CN1C(=N)N[C@](C)(c2sc3c(-c4cnc(C5CC5)nc4)nccc3c2Cl)CS1(=O)=O [Example 78] | 6.79 | 7.64 |
| CN1C(=N)N[C@](C)(c2sc(-c3ccc(-n4nccn4)cc3)cc2Cl)CS1(=O)=O [Example 67] | 5.64 | 6.26 |
| CN1C(=N)N[C@](C)(c2sc(-c3ccnc(-c4nc(C5CC5)no4)c3)cc2F)CS1(=O)=O [Example 52] | 6.30 | 7.77 |
| Cc1nsc(C2CCN(c3nccc4c(Cl)c([C@]5(C)CS(=O)(=O)N(C)C(=N)N5)sc34)CC2)n1 [Example 122] | 6.05 | 6.39 |
| CCCc1cnn(-c2ccc(-c3nccc4c(Cl)c([C@]5(C)CS(=O)(=O)N(C)C(=N)N5)sc34)c(F)c2)c1 [Example 117] | 6.59 | 7.46 |
| CN1C(=N)N[C@](C)(c2sc(-c3ccnc(-c4ccncc4)c3)cc2F)CS1(=O)=O [Example 73] | 6.47 | 6.91 |
| CN1C(=N)N[C@](C)(c2sc3c(-c4ccc(-n5cccn5)cc4F)nccc3c2Cl)CS1(=O)=O [Example 116] | 7.50 | 6.96 |
| CN1C(=N)N[C@](C)(c2sc(-c3ccnc(-c4nc(C5CC5)no4)c3)cc2Cl)CS1(=O)=O [Example 51] | 6.90 | 8.60 |
| CN1C(=N)N[C@](C)(c2sc(-c3ccc(-c4cccnc4)cc3)cc2Cl)CS1(=O)=O [Example 64] | 5.68 | 5.98 |
| CN1C(=N)N[C@](C)(c2sc(-c3ccnc(-c4cncnc4)c3)cc2F)CS1(=O)=O [Example 55] | 5.90 | 6.67 |
| CN1C(=N)N[C@](C)(c2sc3c(-c4ccc(C5CC(=O)N5)cc4)nccc3c2Cl)CS1(=O)=O (stereo partly shown) [Example 101] | 6.02 | 6.94 |
| Cc1cocc1-c1ccc(-c2nccc3c(Cl)c([C@]4(C)CS(=O)(=O)N(C)C(=N)N4)sc23)c(F)c1 [Example 110] | 6.95 | 6.35 |
| CN1C(=N)N[C@](C)(c2sc(-c3cccc(-n4nccn4)c3)cc2Cl)CS1(=O)=O [Example 63] | 7.52 | 8.33 |
| CN1C(=N)N[C@](C)(c2sc(-c3cccc(N4CCS(=O)(=O)CC4)c3)cc2Cl)CS1(=O)=O [Example 61] | 6.16 | 7.38 |
| CN1C(=N)N[C@](C)(c2cc(-c3cccc(-c4nnco4)c3)cs2)CS1(=O)=O [Example 19] | 7.72 | 7.28 |
| CN1C(=N)N[C@](C)(c2sc3c(-c4ccc(-c5cn[nH]c5)cc4F)nccc3c2Cl)CS1(=O)=O [Example 114] | 6.48 | 6.87 |
| CN1C(=N)N[C@](C)(c2sc(-c3cccc(-c4ccccc4)c3)cc2Cl)CS1(=O)=O [Example 62] | 6.79 | 8.80 |
| CN1C(=N)N[C@](C)(c2sc(-c3ccnc(-n4cccn4)c3)cc2F)CS1(=O)=O [Example 77] | 6.79 | 7.16 |
| CN1C(=N)N[C@](C)(c2cc(-c3cc(F)cc(-c4nnco4)c3)cs2)CS1(=O)=O [Example 43] | 8.06 | 8.19 |
| Cc1nonc1N1CCN(c2nccc3c(Cl)c([C@]4(C)CS(=O)(=O)N(C)C(=N)N4)sc23)CC1 [Example 120] |  | 7.02 |
